{
  "source": "patent US9125881B2",
  "about": "“Monoglyceride of acetoacetate and derivatives for the treatment of neurological disorders” (Accera, Inc., priority 2008, dated 2015)",
  "key": {"[1]": {"test": "Mouse pharmacokinetic (PK) study: blood ketone bodies after po and ip dosing", "type": "in vivo", "conditions": "ICR male mice, single po dose (2.5, 5, 10 ml/kg) or single ip dose (1 g/kg); plasma; as early as 15 minutes", "protocol": "The inventor examined the blood levels of ketone bodies after oral (po) and intraperitoneal (ip) dosing of monoacetoacetin at different time points in the mouse.\nICR male mice 6 to 7 weeks old were used. Each mouse weighed between 20-30 grams. Animals were housed 3 per cage and were acclimated for at least 3 days prior to dosing. Mice were given either a single po dose (ranging from 2.5, 5 and 10 ml/kg) of compound, or a single ip dose (1 g/kg). Animals were anesthetized for blood collection at the times 15, 30, 60 and 180 minutes. Whole blood (˜0.4 mls) was collected via cardiac puncture and collected into sodium heparin anticoagulant (Na Heparin, 1:9 ratio). Blood was centrifuged for 8 minutes at 13,000 rpm to isolate plasma. The plasma was transferred into pre-labeled, color-coded eppendorf tubes and frozen at −70° C. […] Plasma levels of beta-hydroxybutyrate (BHB) were determined using a beta-hydroxybutyrate detection kit following manufacturer's directions (StanBio Inc.)."}, "MPTP lesioned mice": {"test_system": "MPTP lesioned mice", "test": "Neuroprotective effects in MPTP lesioned mice (mouse model of Parkinson's disease)", "type": "in vivo", "conditions": "for TH+ neuron density in substantia nigra (mean): 8 day ip MPTP, histology on treatment day 11", "protocol": "To test the possible therapeutic potential of AC-0523 a small pilot experiment was performed examining the potential neuroprotective effects of AC-0523 in a mouse model of Parkinson's disease (PD). 1-methyl-4-phenyl-1,2,3,6-tetrahydropyridine (MPTP), blocks complex I (NADH-ubiquinone oxidoreductase) of the mitochondrial electron transport chain, and causes typical symptoms of (PD) and the loss of dopaminergic neurons.\nSystemic injection of MPTP, upon conversion to MPP+, produces a loss of nigrostriatal dopamine (DA) nerve terminals and eventual death of […] dopaminergic neurons. This neuropathology mimics conditions in the dopamine denervated striatum of human PD patients, and produces […] and postural instability. Assays for tyrosine hydroxylase (TH), the enzyme responsible for catalyzing the production of dopamine, and quantification of TH-containing cells in the SNc are performed to measure the extent of […] dopaminergic neurodegeneration.\nA parallel group design was used. After acclimation in the facility, subjects were tested on the Rotarod and activity tasks. On the second day of test treatment, all subjects began an 8 day ip administration of MPTP or saline. Fifteen minutes before MPTP or saline treatment and 2.75 hours after, subjects received either the test compound or saline. On the first and ninth treatment day blood draws were taken for subsequent monitoring of β-hydroxybutyrate. On treatment day 11 all subjects were euthanized and histology was preformed on a small number of test animals."}, "[2]": {"conditions": "MPTP-treated mice, listed as AC-0523"}},
  "note": "Entries after “also recorded” stand apart in the source; their conditions may differ.",
  "data": [
    {"smiles": "CC(=O)CC(=O)OCC(O)CO", "note": "(stereo not drawn) [Monoacetoacetin, 2,3-dihydroxypropyl 3-oxobutanoate]", "values": [
      {"measurement": "circulating BHB levels", "setting": "[1]", "result": "significant increases"},
      {"measurement": "TH-positive cell counts in the SNc versus MPTP-treated mice who received only saline or AC-1202", "setting": "MPTP lesioned mice", "result": "higher"},
      {"measurement": "density of TH in the caudate-putamen", "setting": "MPTP lesioned mice; MPTP-treated mice", "result": "highest"},
      {"measurement": "TH+ neuron density in substantia nigra (mean)", "setting": "MPTP lesioned mice; MPTP-treated mice, listed as AC0523", "result": 111.000},
      {"measurement": "TH+ neuron density in substantia nigra (mean)", "setting": "MPTP lesioned mice; [2]", "result": "111±20"},
      {"measurement": "protection of tyrosine hydroxylase (TH) expressing cells from MPTP toxicity / neuroprotection", "setting": "MPTP lesioned mice; [2]", "result": "protected tyrosine hydroxylase (TH) expressing cells from MPTP toxicity; also recorded: neuroprotective"}
    ]}
  ]
}
